Values quoted from earlier work in patent publication US7645795B2, “Method for treating amyotrophic lateral sclerosis” (BodyBio, Inc, priority 2004, dated 2010).

Tested on: ALS patients

In the case of `Nc1nc2ccc(OC(F)(F)F)cc2s1` [riluzole], the “Extension of lifespan of ALS patients” value is given as “approximately 3 months” and the Hepatic effect is given as “evokes hepatic stress upon elevation of liver enzymes”.
